How the values were obtained:
[1] = system: OPM-2 (multiple myeloma); assay: Anti-proliferative activity, OPM-2; type: cell-based; conditions: Homo sapiens, read-out: Cell proliferation, IC50
[2] = system: HL60 (acute promyelocytic leukemia); assay: Anti-proliferative activity, HL60; type: cell-based; conditions: Homo sapiens, HL-60, read-out: Cell proliferation, IC50
[3] = system: RS4;11 (acute lymphoblastic leukemia); assay: Anti-proliferative activity, RS4;11; type: cell-based; conditions: Homo sapiens, read-out: Cell proliferation, IC50
[4] = molecular target: human BRD4 bromodomain 1 (Homo sapiens (Human), UniProt O60885); assay: Bromodomain binding assay (BRD4 Alpha-screen); conditions: acetylated histone H4 peptide
Procedure: Bromodomain binding assays were carried out in Reaction Biology (PA, USA) to test the degrees of the inventive compounds in inhibiting the human BRD4 bromodomain 1 by Alpha-screen assay method.
Recombinant human BRD4 bromodomain 1 expressed in E. coli with N-terminal His-tag was used as the enzyme target.
A synthetic peptide ([…]-GSGSK-biotin) containing 1 to 21th amino acids of histone H4 acetylated at lysine 5, 8, 12 and 16 and conjugated to biotin was purchased from Millipore.
BRD4-1 (44 to 170th amino acids; Genbank Accession # NM_058243) was expressed in E. coli with N-terminal His-tag (see, Ni-NTA spin Kit Handbook (Qiagen), second edition, January, 2008). Nickel-Chelate ALPHA acceptor beads (Perkin Elmer) were used to specifically bind BRD4-1, and ALPHA streptavidin donor beads (Perkin Elmer) were used because they specifically recognized the biotinylated H4 peptide.
BRD binding assays were performed in a mixture comprising 50 mM Hepes (pH7.5), 100 mM NaCl, 0.05% CHAPS, 0.1% BSA, and 1% DMSO. After an assay reaction time of 60 min at 25° C., binding was measured with streptavidin donor beads and nickel-chelate acceptor beads. ALPHA signal was detected on Enspire (Ex/Em=680/520-620 nm). IC50 values were calculated from the fit of the dose-response curves. All IC50 values represent geometric mean values of a minimum of four determinations. These assays generally produced results within 3-fold of the reported mean.

[5] = system: NCI-H526 (variant small cell lung cancer); assay: Anti-proliferative activity, NCI-H526; type: cell-based; conditions: Homo sapiens, read-out: Cell proliferation, IC50
[6] = system: LnCAP (human prostatic adenocarcinoma cell line); assay: Anti-proliferative activity test (CellTiter-Glo), LnCAP; type: cell-based; conditions: first value of LnCAP/MV4-11 cell, read-out: Cell proliferation IC50 (LnCAP)
Procedure: IC50 (uM) of the compounds obtained in Examples 1 to 18 against hematological cancer cells and solid tumors was measured for identifying anti-proliferative activities.
A human prostatic adenocarcinoma cell line, LnCAP (ATCC®, CRL-1740) and human leukemia cell line MV4-11 (ATCC®, CRL-9591) were used to test the degrees of the compounds 1 to 18 in inhibiting the cancer cell growth. The testing cell concentration was adjusted to 6.7×10^3 cells/ml with a culture medium supplemented with 10% FBS, in the temperature of 37° C., 5% CO2 and 95% humidity. Culture media and FBS were purchased from GIBCO. 90 μL of cell suspensions thus obtained was added to two 96-well plates with the final cell density of 600 cells/well, followed by addition of 10 μL of culture medium to each well of plate. The plates were incubated overnight in a humidified incubator at 37° C. with 5% CO2.
Compounds 1 to 18 were each dissolved with dimethylsulfoxide (DMSO) or phosphate buffer solution (PBS) as a stock solution, and 200× solutions of test compound (2 mM) using DMSO were prepared. Then, the DMSO solution thus obtained was diluted 20-fold with culture medium or PBS to obtain 10× working solution. 10 μL of 10× working solution (drug solution) was dispensed to each well (triplicate for each concentration). The final concentration of DMSO in culture medium was 0.5% [v/v].
Cell viability was determined using CellTiter-Glo® (CTG) assay. 100 μL of CellTiter-Glo® was added to the equal volume of the cultured cells to read luminescence in EnVision Multi Label Reader.

[7] = Animal pharmacokinetics in ICR mice; type: in vivo; conditions: mouse; for AUC / MRT / clearance / bioavailability: ICR, in vivo
Procedure: Pharmacokinetics of the compounds of 1, 2, 7, 8 11 and 15 were evaluated in ICR mice (6˜8 weeks, 20˜25 g) following intravenous (IV) administration at 10 mg/kg and per oral (PO) administration at 10 mg/kg dose level, respectively. Especially, the additional dose level of Compound 1 was 30 mg/kg.
For serum compound analysis, blood samples were collected by cardiac puncture over 24 hr time course. 20 μL of spiked plasma was added into a 96-well plate, adding ten volumes of internal standard (IS) in acetonitrile (ACN) to the obtained precipitated protein mixed thoroughly, centrifuged at 4,000 rpm for 10 min. 150 μL of supernatant thus obtained was transferred to another pre-labeled 96-well plate, mixed with 150 μL of water. 5 μL or 10 μL of the mixture was injected into the LC-MS system under the following conditions:
Column: API-4000+Waters UPLC (TCLM08);
Lower limit of quantification (LLOQ) was at 1 ng/mL. Pharmacokinetic parameters of half-life (T1/2), clearance (CL), maximum plasma concentration (Cmax), mean residence time (MRT) and bioavailability (F %), plasma exposure (AUC) of the compound were calculated using Phoenix WinNonlin 6.3 (non-compartmental model).

[8] = system: A375 (malignant melanoma); assay: Anti-proliferative activity, A375; type: cell-based; conditions: Homo sapiens, A-375, read-out: Cell proliferation, IC50

SMILES: COc1ccc2c(c1)C(c1ccc(Cl)cc1)=N[C@@H](COS(C)(=O)=O)c1nnc(C)n1-2 [Compound 1, (R)-(6-(4-chlorophenyl)-8-methoxy-1-methyl-4H-benzo[f]-[1,2,4]triazolo[4,3-a][1,4]diazepin-4-yl)methyl methanesulfonate]
- IC50 [1]: 1450 nM
- IC50 [2]: 1240 nM
- IC50 [3]: 3140 nM
- IC50 [4]: 190 nM
- IC50 [5]: 2620 nM
- IC50 [6]: 470 nM
- AUC ([7]; IV, 10 mg/kg): 74 µM·h
- MRT ([7]; IV, 10 mg/kg): 4.7 h
- clearance ([7]; IV, 10 mg/kg): 5.1 mL/min/kg
- AUC ([7]; IV, 30 mg/kg): 302 µM·h
- clearance ([7]; IV, 30 mg/kg): 3.7 mL/min/kg
- AUC ([7]; PO, 10 mg/kg): 76 µM·h
- MRT ([7]; PO, 10 mg/kg): 6.2 h
- bioavailability ([7]; PO, 10 mg/kg): 103%
- AUC ([7]; PO, 30 mg/kg): 260 µM·h
- bioavailability ([7]; PO, 30 mg/kg): 86.2%
- dose linearity in plasma exposure (in words) ([7]; FIG. 1, 10 and 30 mg/kg): good dose linearity in plasma exposure
- IC50 [8]: 5570 nM

Source: patent publication US9884874B2, “Bromodomain-inhibiting compounds and pharmaceutical composition comprising same for preventing or treating a cancer” (KAINOS MEDICINE, INC., priority 2014, dated 2018)
